In patent US10844062B2, “Pyridine derivative inhibiting RAF kinase and vascular endothelial growth factor receptor, method for preparing same, pharmaceutical composition containing same, and use thereof” (SAMJIN PHARMACEUTICAL CO., LTD., priority 2016, dated 2020) one finds IC50 data, which are given here for 25 molecules.

The subject of this experiment is LS513 KRAS G12V (colon). Put plainly: MTT assay. The class given is cell-based. Particulars: Homo sapiens, LS-513, 72 h, Table 4; 3 days incubation; read-out: MTT assay IC50 KRAS mutant (Colon) LS513 KRAS G12V. The method, then: MTT assay is frequently used for the purpose of primary screening for the sensitivity of anticancer agents and to examine cytotoxicity. When cancer cells are treated with varying concentrations of any anticancer agent for a predetermined time to induce death of the cells and are then treated with MTT, and when the formation of formazan is measured, the concentration of the anticancer agent, at which about 50% of the cells survive, can be determined. This concentration value is called IC50. IC50 values differ between drugs, and thus can be characteristic of the drugs. Using this method, the effects of anticancer agents against cell proliferation can be quantitatively compared. Thus, in order to measure the cytotoxicity of samples, MTT assay was performed using CellTiter 96 Non-radioactive Cell Proliferation Assay Kit (Promega).
Cells in a cell suspension were counted with a hematocytometer, and then 200 μL of the cell suspension was added to each well of a 96 well plate at a desired concentration (cell amount determined depending on a cell line). After cell seeding, the cells were incubated in a CO2 incubator at 37° C. overnight. After one day of cell stabilization, the cells were treated with desired concentrations of the compounds. The cells were incubated in a CO2 incubator at 37° C. for 3 days, and then the sample was removed, and 200 μL of MTT solution was added to each well. After 2 hours of incubation, the MTT dilution was carefully shaken, and 200 μL of DMSO was added to each well, followed by shaking with a plate shaker for 60 minutes.

The term IC50 denotes the concentration that gives 50% inhibition. For the molecule `O=C(Nc1ccc(F)c(Nc2ncccc2-c2ncnc3[nH]cnc23)c1F)c1cc(N2CCC(O)CC2)cc(C(F)(F)F)c1` [Example 12, N-(3-(3-(9H-purin-6-yl)pyridin-2-ylamino)-2,4-difluorophenyl)-3-(4-hydroxypiperidin-1-yl)-5-(trifluoromethyl)benzamide], the IC50 was determined as 1020 nM.

Regarding `O=C(Nc1cc(Nc2ncccc2-c2ncnc3[nH]cnc23)ccc1F)c1ccc(Cl)c(OC(F)(F)F)c1` [Example 147, N-5-[(3-(9H-purin-6-yl)pyridin-2-yl)amino]-2-fluorophenyl-4-chloro-3-(trifluoromethoxy)benzamide], the IC50 stood at 502 nM.

On to `COc1ccc(Nc2ncccc2-c2ncnc3[nH]cnc23)cc1NC(=O)c1cccc(C(F)(F)F)c1` [Example 69, N-2-Methoxy-5-[3-(9H-Purin-6-Yl)Pyridin-2-Ylamino)Phenyl-3-Trifluoromethylbenzamide], for which the IC50 amounted to 7100 nM.

Consider `CC(C)(C#N)c1cccc(C(=O)Nc2cc(Nc3ncccc3-c3ncnc4[nH]cnc34)c(F)cc2F)c1` [Example 32, N-(5-(3-(9H-Purin-6-Yl)Pyridin-2-Ylamino)-2,4-Difluorophenyl)-3-(2-Cyanopropan-2-Yl)Benzamide], for which the IC50 was found to be 173 nM.

For the molecule `O=C(Nc1cc(Nc2ncccc2-c2ncnc3[nH]cnc23)ccc1F)c1cncc(C(F)(F)F)c1` [Example 149, N-5-[(3-(9H-purin-6-yl)pyridin-2-yl)amino]-2-fluorophenyl-5-(trifluoromethyl)nicotinamide], the concentration for half-maximal inhibition (IC50) was 890 nM.

Take `Cc1cccc(C(=O)Nc2cc(Nc3ncccc3-c3ncnc4[nH]cnc34)ccc2F)n1` [Example 64, N-2-Fluoro-5-[3-(9H-Purin-6-Yl)Pyridin-2-Ylamino)Phenyl-(6-Methylpyridin-2-Yl)Benzamide]: the IC50 is 300 nM.

Turning to `O=C(Nc1cc(Nc2ncccc2-c2ncnc3[nH]cnc23)ccc1F)c1cc(C(F)(F)F)ccn1` [Example 144, N-5-[(3-(9H-purin-6-yl)pyridin-2-yl)amino]-2-fluorophenyl-4-(trifluoromethyl) picolinamide], the IC50 is 444 nM.

For `COC(=O)Nc1cccc(C(=O)Nc2ccc(F)c(Nc3ncccc3-c3ncnc4[nH]cnc34)c2F)c1` [Example 55, Methyl 3-(3-(3-(9H-Purin-6-Yl)Pyridin-2-Ylamino)-2,4-Difluorophenylcarbamoyl)Phenylcarbamate], the IC50 was above 10000 nM.

`O=C(Nc1ccc(F)c(Nc2ncccc2-c2ncnc3[nH]cnc23)c1F)c1ccc(N2CCCC2)c(C(F)(F)F)c1` [Example 19, N-(3-(3-(9H-purin-6-yl)pyridin-2-ylamino)-2,4-difluorophenyl)-4-(pyrrolidin-1-yl)-3-(trifluoromethyl)benzamide]: the IC50 amounted to 939 nM.

Take `O=C(Nc1ccc(F)c(Nc2ncccc2-c2ncnc3[nH]cnc23)c1F)c1cccc([N+](=O)[O-])c1` [Example 34, N-(3-(3-(9H-Purin-6-Yl)Pyridin-2-Ylamino)-2,4-Difluorophenyl)-3-Nitrobenzamide]: the IC50 is above 10000 nM.

As for `N#CC1(c2cccc(C(=O)Nc3ccc(F)c(Nc4ncccc4-c4ncnc5[nH]cnc45)c3F)c2)CC1` [Example 20, N-(3-(3-(9H-purin-6-yl)pyridin-2-ylamino)-2,4-difluorophenyl)-3-(1-cyanocyclopropyl)benzamide], the IC50 was found to be 2600 nM.

In the case of `O=C(Nc1ccc(F)c(Nc2ncccc2-c2ncnc3[nH]cnc23)c1F)c1ccc(C(F)(F)F)cc1` [Example 27, N-(3-(3-(9H-purin-6-yl)pyridin-2-ylamino)-2,4-difluorophenyl)-4-(trifluoromethyl)benzamide], the IC50 is above 10000 nM.

For the molecule `O=C(Nc1cccc(Nc2ncccc2-c2ncnc3[nH]cnc23)c1F)c1cccc(C(F)(F)F)c1` [Example 122, N-3-[(3-(9H-purin-6-yl)pyridin-2-yl)amino]-2-fluorophenyl-3-(trifluoromethyl)benzamide], the IC50 was 6580 nM.

Turning to `O=C(Nc1ccc(F)c(Nc2ncccc2-c2ncnc3[nH]cnc23)c1F)c1ccco1` [Example 6, N-(3-(3-(9H-purin-6-yl)pyridine-2-ylamino)-2,4-difluorophenyl)furan-2-carboxamide], the IC50 was above 10000 nM.

As to `O=C(Nc1cc(Nc2ncccc2-c2ncnc3[nH]cnc23)ccc1F)c1cccc(F)c1` [Example 113, N-5-[(3-(9H-Purin-6-Yl)Pyridin-2-Yl)Amino]-2-Fluorophenyl-3-Fluorobenzamide], the IC50 worked out at 1480 nM.

For the molecule `O=C(Nc1ccc(F)c(Nc2ncccc2-c2ncnc3[nH]cnc23)c1F)c1cc(N2CCSCC2)cc(C(F)(F)F)c1` [Example 11, N-(3-(3-(9H-purin-6-yl)pyridin-2-ylamino)-2,4-difluorophenyl)-3-thiomorpholino-5-(trifluoromethyl)benzamide], the IC50 was 996 nM.

As for `O=C(Nc1cc(Nc2ncccc2-c2ncnc3[nH]cnc23)c(F)cc1F)c1cccc(C(F)(F)F)c1` [Example 31, N-(5-(3-(9H-Purin-6-Yl)Pyridin-2-Ylamino)-2,4-Difluorophenyl)-3-(Trifluoromethyl)Benzamide], the IC50 is above 10000 nM.

`O=C(Nc1ccc(F)c(Nc2ncccc2-c2ncnc3[nH]cnc23)c1F)c1cc(N2CCOCC2)cc(C(F)(F)F)c1` [Example 18, N-(3-(3-(9H-purin-6-yl)pyridin-2-ylamino)-2,4-difluorophenyl)-3-morpholino-5-(trifluoromethyl)benzamide]: the IC50 was 3020 nM.

Take `O=C(Nc1cc(Nc2ncccc2-c2ncnc3[nH]cnc23)ccc1F)c1cc(Cl)cc(OC(F)(F)F)c1` [Example 142, N-5-[(3-(9H-purin-6-yl)pyridin-2-yl)amino]-2-fluorophenyl-3-chloro-5-(trifluoromethoxy)benzamide]: the IC50 came out at 128 nM.

`O=C(Nc1ccc(Nc2ncccc2-c2ncnc3[nH]cnc23)cc1)c1cccc(C(F)(F)F)c1` [Example 79, N-4-[3-(9H-Purin-6-Yl)Pyridin-2-Ylamino]Phenyl-3-Trifluoromethylbenzamide]: the IC50 was above 10000 nM.

Consider `O=C(Nc1ccc(C(F)(F)F)cc1)Nc1cc(Nc2ncccc2-c2ncnc3[nH]cnc23)ccc1F` [Example 123, 1-5-[(3-(9H-purin-6-yl)pyridin-2-yl)amino]-2-fluorophenyl-3-[4-(trifluoromethyl)phenyl]urea], for which the IC50 was 392 nM.

Consider `O=C(Nc1cc(Nc2ncccc2-c2ncnc3[nH]cnc23)ccc1F)c1cc(C(F)(F)F)ccc1F` [Example 120, N-5-[(3-(9H-purin-6-yl)pyridin-2-yl)amino]-2-fluorophenyl-2-fluoro-5-(trifluoromethyl)benzamide], for which the IC50 was 3380 nM.

`O=C(Nc1cc(Nc2ncccc2-c2ncnc3[nH]cnc23)ccc1Cl)c1cc(F)cc(C(F)(F)F)c1` [Example 67, N-2-Chloro-5-[3-(9H-Purin-6-Yl)Pyridin-2-Ylamino)Phenyl-3-Fluoro-5-Trifluoromethylbenzamide]: the 50% inhibitory concentration (IC50) stood at 6590 nM.

Turning to `O=C(Nc1cc(Nc2ncccc2-c2ncnc3[nH]cnc23)ccc1F)c1ccc(C(F)(F)F)c(C(F)(F)F)c1` [Example 129, N-5-[(3-(9H-purin-6-yl)pyridin-2-yl)amino]-2-fluorophenyl-3,4-bis(trifluoromethyl)benzamide], the IC50 came out at 652 nM.

Turning to `O=C(Nc1ccc(F)c(Nc2ncccc2-c2ncnc3[nH]cnc23)c1F)c1ccccc1` [Example 57, N-(3-(3-(9H-Purin-6-Yl)Pyridin-2-Ylamino)-2,4-Difluorophenyl)Benzamide], the IC50 was above 10000 nM.
